From the supplement of paper PMC11821682

What was measured:
Danio rerio embryo = test: BMC10 any morphological effect or mortality at 120 hpf; higher = less toxic
HL-60 = test: Cell Health Index (toxicity pseudo-probability over dose series) (index 0-1); higher = more cytotoxic / cell stress;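 also: HL-60 cells exposed 4 h at 37 °C to ten threefold dilutions spanning 5 nM to 100 µM, multiparametric flow cytometry features scored by machine-learning classification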

Row | Compound | BMC10 any morphological effect or mortality (Danio rerio embryo) [µM] | Cell Health Index (HL-60)
1 | O=c1[nH]c(=O)n([C@H]2C[C@H](O)[C@@H](CO)O2)cc1CO [5-Hydroxymethyl-2'-deoxyuridine] | > 100 | 0.178
2 | Cl.N=C(N)NC(=N)N1CCOCC1 [Moroxydine] | > 100 | 0.19
3 | C[n+]1cccc(C(=O)O)c1.[Cl-] [Trigonelline] | > 100 | 0.15
4 | Nc1nc(NC2CC2)c2ncn([C@H]3C=C[C@@H](CO)C3)c2n1.O=S(=O)(O)O [Abacavir] | > 100 | 0.116
5 | Cl.Nc1ccn([C@@H]2O[C@H](CO)[C@@H](O)C2(F)F)c(=O)n1 [Gemcitabine] | > 100 | 0.172
6 | O=C(/C=C/c1ccc(O)c(O)c1)O[C@@H]1C[C@](OC(=O)/C=C/c2ccc(O)c(O)c2)(C(=O)O)C[C@@H](O)[C@H]1O [1,5-Dicaffeoylquinic acid] | > 100 | 0.569
7 | CC[C@H](NC(=O)[C@H](C)NC)C(=O)N1C[C@@H](O)C[C@H]1Cc1c(-c2[nH]c3cc(F)ccc3c2C[C@@H]2C[C@H](O)CN2C(=O)[C@H](CC)NC(=O)[C@H](C)NC)[nH]c2cc(F)ccc12 [Birinapant] | > 100 | 0.282
8 | CCCCc1nc(Cl)c(C=O)n1Cc1ccc(-c2ccccc2-c2nnn[nH]2)cc1 [Losartan carboxaldehyde] | > 100 | 0.293
9 | Nc1nc(=O)n([C@@H]2CS[C@H](CO)O2)cc1F [Emtricitabine] | > 100 | 0.158
10 | CC(C)(C)NC(=O)N[C@H](C(=O)N1C[C@H]2[C@@H]([C@H]1C(=O)NC(CC1CCC1)C(=O)C(N)=O)C2(C)C)C(C)(C)C (some centres not stated) [Boceprevir] | > 100 | 0.228
11 | O=C(/C=C/c1ccc(O)c(O)c1)O[C@@H]1C[C@](O)(C(=O)O)C[C@@H](OC(=O)/C=C/c2ccc(O)c(O)c2)[C@H]1O [3,5-Dicaffeoylquinic acid] | > 100 | 0.614
12 | C[C@@]1(F)[C@H](O)[C@@H](CO)O[C@H]1n1ccc(=O)[nH]c1=O [PSI-6206] | > 100 | 0.116
13 | COC(=O)N[C@H](C(=O)NNC[C@H](O)[C@H](Cc1ccccc1)NC(=O)[C@@H](NC(=O)OC)C(C)(C)C)C(C)(C)C [Des(benzylpyridyl) Atazanavir] | > 100 | 0.207
14 | O=C(OC1OC2COC(=O)c3cc(O)c(O)c(O)c3-c3c(cc(O)c(O)c3O)C(=O)OC(C2O)C1O)c1cc(O)c(O)c(O)c1 (configuration not stated) [Corilagin] | > 100 | 0.889
15 | COc1ccc(C2CNC(=O)C2)cc1OC1CCCC1 (configuration not stated) [Rolipram] | > 100 | 0.152
16 | CC(=O)Nc1nc(C)c(-c2ccc(Cl)c(S(=O)(=O)NCCO)c2)s1 [PIK-93] | > 100 | 0.267
17 | CN(C)C(=O)COC(=O)Cc1ccc(OC(=O)c2ccc(NC(=N)N)cc2)cc1.CS(=O)(=O)O [Camostat] | > 100 | 0.162
18 | COC(=O)N[C@H](C(=O)N1CCC[C@H]1c1ncc(-c2ccc(-c3ccc(-c4cnc([C@@H]5CCCN5C(=O)[C@@H](NC(=O)OC)C(C)C)[nH]4)cc3)cc2)[nH]1)C(C)C [Daclatasvir] | > 100 | 0.208
19 | COC(=O)N[C@H](C(=O)N[C@@H](Cc1ccccc1)[C@@H](O)CN(Cc1ccc(-c2ccccn2)cc1)NC(=O)[C@@H](NC(=O)OC)C(C)(C)C)C(C)(C)C [Atazanavir] | > 100 | 0.374
20 | CNc1ncnc2c1ncn2[C@@H]1O[C@H](CO)[C@@H](O)[C@H]1O [N6-Methyladenosine] | > 100 | 0.307
21 | Nc1nc(=O)c2ncn(COC(CO)CO)c2[nH]1 [Ganciclovir] | > 100 | 0.179
22 | C1=C2CCCN[C@H]2[C@@H]2C[C@H]1[C@H]1CCCCN1C2 [Aloperine] | > 100 | 0.209
23 | O=C(O)C[C@@H]1C(=O)O[C@H]2[C@@H]3OC(=O)c4cc(O)c(O)c(O)c4-c4c(cc(O)c(O)c4O)C(=O)OC[C@H]2O[C@@H](OC(=O)c2cc(O)c(O)c(O)c2)[C@@H]3OC(=O)c2cc(O)c(O)c3c2[C@H]1[C@H](O)C(=O)O3 [Chebulagic acid] | > 100 | 0.874
24 | CC(C)(C)NC(=O)[C@@H]1C[C@@H]2CCCC[C@@H]2CN1C[C@@H](O)[C@H](Cc1ccccc1)NC(=O)[C@H](CC(N)=O)NC(=O)c1ccc2ccccc2n1.CS(=O)(=O)O [Saquinavir] | > 100 | 0.87
25 | O=C1C=CC[C@@H]2[C@H]3CCCN4CCC[C@@H](CN12)[C@@H]34 [Sophocarpine] | > 100 | 0.164
26 | CCN(CC)CCCC(C)Nc1ccnc2cc(Cl)ccc12.O=P(O)(O)O.O=P(O)(O)O (configuration not stated) [Chloroquine] | > 100 | 0.236

Row | Compound | BMC10 any morphological effect or mortality (Danio rerio embryo) [µM] | Cell Health Index (HL-60)
27 | Cc1nnnn1/N=C\c1ccc(O)c(C(c2ccc(O)cc2)c2cc(/C=N/n3nnnc3C)ccc2O)c1 (configuration not stated) | > 100 | 0.389
28 | O=C(c1ccccc1)c1ccc2nc(NC(=O)c3csc(C4CCN(c5ncnc6ccsc56)CC4)n3)[nH]c2c1 | > 100 | 0.507
29 | CCOC(=O)C1=C[C@@H](OC(CC)CC)[C@H](NC(C)=O)[C@@H](N)C1.O=P(O)(O)O [Oseltamivir] | > 100 | 0.252
30 | COc1ccc(/C=C/C(=O)O)cc1O [Isoferulic acid] | > 100 | 0.171
31 | Cc1ccnc2c1NC(=O)c1cccnc1N2C1CC1 [Nevirapine] | > 100 | 0.185
32 | O=C(O)c1cc(O)c2c(c1)[C@H]([C@H]1c3cc(C(=O)O)cc(O)c3C(=O)c3c(O[C@@H]4O[C@H](CO)[C@@H](O)[C@H](O)[C@H]4O)cccc31)c1cccc(O[C@@H]3O[C@H](CO)[C@@H](O)[C@H](O)[C@H]3O)c1C2=O [Sennoside A] | > 100 | 0.422
33 | Nc1ccc(-c2nc3ccc(-c4nc5cc(N)ccc5[nH]4)cc3[nH]2)cc1 [Ro 90-7501] | > 100 | 0.512
34 | CC(C)C[C@H](NC(=O)[C@@H](NC(=O)N[C@@H](Cc1ccccc1)C(=O)O)C1CCNC(=N)N1)C(=O)N[C@H](C=O)Cc1ccccc1 (some centres not stated) [Chymostatin] | > 100 | 0.19
35 | Cl.c1ccc([C@H]2CN3CCSC3=N2)cc1 [(-)-Levamisole] | > 100 | 0.173
36 | CC(=O)N[C@@H](CS)C(=O)O [N-acetyl-L-Cysteine] | > 100 | 0.143
37 | CCC(CC)[C@H](NC(C)=O)[C@@H]1[C@H](O)[C@@H](C(=O)O)C[C@H]1NC(=N)N [Peramivir] | > 100 | 0.202
38 | CC(O)(P(=O)([O-])O)P(=O)([O-])O.[Na+].[Na+] [Etidronic acid] | > 100 | 0.198
39 | OC[C@H]1OC(O)C[C@@H](O)[C@@H]1O (stereo partly drawn) [2-deoxy-D-Glucose] | > 100 | 0.325
40 | COc1cc(C(=O)NCc2ccc(OCCN(C)C)cc2)cc(OC)c1OC.Cl [Trimethobenzamide] | > 100 | 0.194
41 | CCCN(CCC)S(=O)(=O)c1ccc(C(=O)O)cc1 [Probenecid] | > 100 | 0.196
42 | CC1(C)[C@@H]2CC[C@@]1(C)[C@H](O)C2 [Isoborneol] | > 100 | 0.173
43 | O=C1/C(=C/c2ccc(O)c(O)c2)COc2cc(O)ccc21 [Sappanone A] | > 100 | 0.614
44 | CC(C)(O)[C@@H]1CC[C@](C)([C@H]2[C@@H](O)C[C@@]3(C)[C@@H]4C[C@H](O[C@@H]5O[C@H](CO)[C@@H](O)[C@H](O)[C@H]5O)[C@H]5C(C)(C)[C@@H](O[C@@H]6OC[C@@H](O)[C@H](O)[C@H]6O)CC[C@@]56C[C@@]46CC[C@]23C)O1 [Astragaloside IV] | > 100 | 0.16
45 | COc1ncnc(NS(=O)(=O)c2ccc(N)cc2)c1OC [Sulfadoxin] | > 100 | 0.201
46 | CC(=O)N(O)CCCCCNC(=O)CCC(=O)N(O)CCCCCNC(=O)CCC(=O)N(O)CCCCCN.CS(=O)(=O)O [Deferoxamine] | > 100 | 0.23
47 | O=C(CCCCCCC(=O)Nc1ccccc1)NO [SAHA] | > 100 | 0.239
48 | Cn1c(CNc2ccc(C(=N)N)cc2)nc2cc(C(=O)N(CCC(=O)O)c3ccccn3)ccc21 [Dabigatran] | > 100 | 0.137
49 | COc1cc(OC)c2c(=O)nc(-c3cc(C)c(OCCO)c(C)c3)[nH]c2c1 [Apabetalone] | > 100 | 0.344
50 | O=C(O[C@@H]1Cc2c(O)cc(O)cc2O[C@@H]1c1ccc(O)c(O)c1)c1cc(O)c(O)c(O)c1 [(-)-Epicatechin gallate] | > 100 | 0.807
51 | O=C(O)/C(S)=C/c1ccc(I)cc1 | > 100 | 0.32
